Laboratory results: PubChem BioAssay AID250 (DTP/NCI, 2004)
Several values for one entry are separate records, joined by “and”; a condition that tells them apart may be missing. Equal entries are not always repeated. Inconclusive results and toxic doses are left out.

Tested on: BDF1 mice, L1210 leukemia sc, survival T/C
Test: NCI In Vivo Anticancer Drug Screen. Data for tumor model L1210 Leukemia (subcutaneous) in B6D2F1 (BDF1) mice
Conditions: higher = longer survival
Method in brief: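 Antitumor activity is assessed in mice with transplanted tumors by comparing the treated group (T) with the vehicle control group (C).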

## S=c1nc[nH]c2nc[nH]c12
endpoint: mean survival time, dose: 60.0 mg/kg/injection, schedule: Q01DX001 (ip), vehicle: saline
  T/C: 106 % of control
endpoint: mean survival time, dose: 90.0 mg/kg/injection, schedule: Q01DX001 (ip), vehicle: saline
  T/C: 110 % of control
endpoint: mean survival time, dose: 120.0 mg/kg/injection, schedule: Q01DX001 (ip), vehicle: saline
  T/C: 110 % of control
endpoint: mean survival time, dose: 240.0 mg/kg/injection, schedule: Q01DX001 (ip), vehicle: saline
  T/C: 116 % of control
endpoint: median survival time, dose: 0.65 mg/kg/injection, schedule: Q02DX Z (sc), vehicle: other
  T/C: 116 % of control
endpoint: median survival time, dose: 5.0 mg/kg/injection, schedule: Q01DX009 (sc), vehicle: other
  T/C: 109 % of control
endpoint: median survival time, dose: 5.0 mg/kg/injection, schedule: Q## X Z (sc), vehicle: other
  T/C: 105 % of control
endpoint: median survival time, dose: 10.0 mg/kg/injection, schedule: Q01DX009 (sc), vehicle: other
  T/C: 113 % of control
endpoint: median survival time, dose: 10.0 mg/kg/injection, schedule: Q01DX Z (sc), vehicle: methylcellulose (MC)
  T/C: 105 % of control
endpoint: median survival time, dose: 12.5 mg/kg/injection, schedule: Q01DX012 (ip), vehicle: other
  T/C: 122 % of control
endpoint: median survival time, dose: 14.0 mg/kg/injection, schedule: Q01DX Z (ip), vehicle: other
  T/C: 100 % of control
endpoint: median survival time, dose: 14.0 mg/kg/injection, schedule: Q01DX Z (oral), vehicle: methylcellulose (MC)
  T/C: 100 % of control and 104 % of control
endpoint: median survival time, dose: 14.0 mg/kg/injection, schedule: Q01DX Z (sc), vehicle: other
  T/C: 100 % of control (2×) and 110 % of control
endpoint: median survival time, dose: 14.0 mg/kg/injection, schedule: Q#A X Z (sc), vehicle: other
  T/C: 105 % of control and 115 % of control
endpoint: median survival time, dose: 17.0 mg/kg/injection, schedule: Q01DX Z (oral), vehicle: methylcellulose (MC)
  T/C: 95 % of control
endpoint: median survival time, dose: 17.0 mg/kg/injection, schedule: Q01DX Z (sc), vehicle: methylcellulose (MC)
  T/C: 100 % of control and 110 % of control
endpoint: median survival time, dose: 20.0 mg/kg/injection, schedule: Q01DX009 (sc), vehicle: other
  T/C: 124 % of control
endpoint: median survival time, dose: 23.0 mg/kg/injection, schedule: Q01DX Z (ip), vehicle: other
  T/C: 100 % of control
endpoint: median survival time, dose: 23.0 mg/kg/injection, schedule: Q01DX Z (oral), vehicle: methylcellulose (MC)
  T/C: 100 % of control
endpoint: median survival time, dose: 23.0 mg/kg/injection, schedule: Q01DX Z (sc), vehicle: methylcellulose (MC)
  T/C: 109 % of control
endpoint: median survival time, dose: 23.0 mg/kg/injection, schedule: Q02DX Z (sc), vehicle: other
  T/C: 94 % of control
endpoint: median survival time, dose: 23.0 mg/kg/injection, schedule: Q#A X Z (sc), vehicle: other
  T/C: 105 % of control
endpoint: median survival time, dose: 28.0 mg/kg/injection, schedule: Q01DX Z (oral), vehicle: methylcellulose (MC)
  T/C: 100 % of control
endpoint: median survival time, dose: 28.0 mg/kg/injection, schedule: Q01DX Z (sc), vehicle: methylcellulose (MC)
  T/C: 109 % of control
endpoint: median survival time, dose: 28.0 mg/kg/injection, schedule: Q01DX Z (sc), vehicle: other
  T/C: 110 % of control
endpoint: median survival time, dose: 38.9 mg/kg/injection, schedule: Q01DX Z (sc), vehicle: methylcellulose (MC)
  T/C: 150 % of control
endpoint: median survival time, dose: 38.9 mg/kg/injection, schedule: Q01DX Z (sc), vehicle: other
  T/C: 100 % of control and 105 % of control
endpoint: median survival time, dose: 39.0 mg/kg/injection, schedule: Q01DX001 (sc), vehicle: other
  T/C: 105 % of control
endpoint: median survival time, dose: 39.0 mg/kg/injection, schedule: Q01DX Z (ip), vehicle: other
  T/C: 110 % of control
endpoint: median survival time, dose: 39.0 mg/kg/injection, schedule: Q01DX Z (oral), vehicle: methylcellulose (MC)
  T/C: 104 % of control
endpoint: median survival time, dose: 39.0 mg/kg/injection, schedule: Q02DX Z (sc), vehicle: other
  T/C: 105 % of control
endpoint: median survival time, dose: 39.0 mg/kg/injection, schedule: Q07DX Z (sc), vehicle: other
  T/C: 105 % of control
endpoint: median survival time, dose: 39.0 mg/kg/injection, schedule: Q## X Z (sc), vehicle: other
  T/C: 100 % of control
endpoint: median survival time, dose: 39.0 mg/kg/injection, schedule: Q#A X Z (sc), vehicle: other
  T/C: 110 % of control
endpoint: median survival time, dose: 47.0 mg/kg/injection, schedule: Q01DX Z (oral), vehicle: methylcellulose (MC)
  T/C: 104 % of control
endpoint: median survival time, dose: 47.0 mg/kg/injection, schedule: Q01DX Z (sc), vehicle: other
  T/C: 110 % of control
endpoint: median survival time, dose: 50.0 mg/kg/injection, schedule: Q01DX012 (ip), vehicle: other
  T/C: 155 % of control
endpoint: median survival time, dose: 60.0 mg/kg/injection, schedule: Q01DX001 (ip), vehicle: saline
  T/C: 100 % of control
endpoint: median survival time, dose: 64.8 mg/kg/injection, schedule: Q01DX Z (sc), vehicle: other
  T/C: 150 % of control
endpoint: median survival time, dose: 65.0 mg/kg/injection, schedule: Q01DX001 (sc), vehicle: other
  T/C: 105 % of control and 115 % of control
endpoint: median survival time, dose: 65.0 mg/kg/injection, schedule: Q01DX Z (oral), vehicle: methylcellulose (MC)
  T/C: 104 % of control and 115 % of control
endpoint: median survival time, dose: 65.0 mg/kg/injection, schedule: Q01DX Z (sc), vehicle: methylcellulose (MC)
  T/C: 154 % of control
endpoint: median survival time, dose: 65.0 mg/kg/injection, schedule: Q02DX Z (sc), vehicle: other
  T/C: 105 % of control and 115 % of control
endpoint: median survival time, dose: 65.0 mg/kg/injection, schedule: Q07DX Z (sc), vehicle: other
  T/C: 105 % of control and 115 % of control
endpoint: median survival time, dose: 65.0 mg/kg/injection, schedule: Q## X Z (sc), vehicle: other
  T/C: 100 % of control
endpoint: median survival time, dose: 78.0 mg/kg/injection, schedule: Q01DX Z (oral), vehicle: methylcellulose (MC)
  T/C: 113 % of control
endpoint: median survival time, dose: 78.0 mg/kg/injection, schedule: Q01DX Z (sc), vehicle: other
  T/C: 155 % of control
endpoint: median survival time, dose: 80.0 mg/kg/injection, schedule: Q01DX009 (ip), vehicle: other
  T/C: 150 % of control
endpoint: median survival time, dose: 80.0 mg/kg/injection, schedule: Q01DX009 (sc), vehicle: other
  T/C: 155 % of control
endpoint: median survival time, dose: 90.0 mg/kg/injection, schedule: Q01DX001 (ip), vehicle: saline
  T/C: 110 % of control
endpoint: median survival time, dose: 108.0 mg/kg/injection, schedule: Q01DX001 (sc), vehicle: other
  T/C: 115 % of control
endpoint: median survival time, dose: 108.0 mg/kg/injection, schedule: Q01DX Z (ip), vehicle: other
  T/C: 155 % of control
endpoint: median survival time, dose: 108.0 mg/kg/injection, schedule: Q01DX Z (oral), vehicle: methylcellulose (MC)
  T/C: 105 % of control and 118 % of control
endpoint: median survival time, dose: 108.0 mg/kg/injection, schedule: Q02DX Z (sc), vehicle: other
  T/C: 152 % of control
endpoint: median survival time, dose: 108.0 mg/kg/injection, schedule: Q07DX Z (sc), vehicle: other
  T/C: 115 % of control
endpoint: median survival time, dose: 108.0 mg/kg/injection, schedule: Q## X Z (sc), vehicle: other
  T/C: 115 % of control
endpoint: median survival time, dose: 120.0 mg/kg/injection, schedule: Q01DX001 (ip), vehicle: saline
  T/C: 110 % of control
endpoint: median survival time, dose: 130.0 mg/kg/injection, schedule: Q01DX Z (sc), vehicle: methylcellulose (MC)
  T/C: 109 % of control
endpoint: median survival time, dose: 130.0 mg/kg/injection, schedule: Q01DX Z (sc), vehicle: other
  T/C: 150 % of control
endpoint: median survival time, dose: 160.0 mg/kg/injection, schedule: Q01DX009 (sc), vehicle: other
  T/C: 102 % of control
endpoint: median survival time, dose: 180.0 mg/kg/injection, schedule: Q01DX001 (sc), vehicle: other
  T/C: 121 % of control
endpoint: median survival time, dose: 180.0 mg/kg/injection, schedule: Q01DX Z (oral), vehicle: methylcellulose (MC)
  T/C: 150 % of control
endpoint: median survival time, dose: 180.0 mg/kg/injection, schedule: Q07DX Z (sc), vehicle: other
  T/C: 121 % of control
endpoint: median survival time, dose: 200.0 mg/kg/injection, schedule: Q01DX012 (ip), vehicle: other
  T/C: 100 % of control
endpoint: median survival time, dose: 216.0 mg/kg/injection, schedule: Q01DX Z (oral), vehicle: methylcellulose (MC)
  T/C: 109 % of control
endpoint: median survival time, dose: 216.0 mg/kg/injection, schedule: Q01DX Z (sc), vehicle: methylcellulose (MC)
  T/C: 109 % of control
endpoint: median survival time, dose: 216.0 mg/kg/injection, schedule: Q01DX Z (sc), vehicle: other
  T/C: 150 % of control
endpoint: median survival time, dose: 240.0 mg/kg/injection, schedule: Q01DX001 (ip), vehicle: saline
  T/C: 110 % of control
endpoint: median survival time, dose: 300.0 mg/kg/injection, schedule: Q01DX Z (oral), vehicle: methylcellulose (MC)
  T/C: 150 % of control and 154 % of control
endpoint: median survival time, dose: 300.0 mg/kg/injection, schedule: Q01DX Z (sc), vehicle: methylcellulose (MC)
  T/C: 120 % of control
endpoint: median survival time, dose: 300.0 mg/kg/injection, schedule: Q07DX Z (sc), vehicle: other
  T/C: 121 % of control
endpoint: median survival time, dose: 300.0 mg/kg/injection, schedule: Q## X Z (sc), vehicle: other
  T/C: 157 % of control
endpoint: median survival time, dose: 360.0 mg/kg/injection, schedule: Q01DX Z (oral), vehicle: methylcellulose (MC)
  T/C: 122 % of control
endpoint: median survival time, dose: 500.0 mg/kg/injection, schedule: Q01DX Z (oral), vehicle: other
  T/C: 120 % of control
